Molecular target: ATP-dependent translocase ABCB1 (Mus musculus, UniProt P21447)
Test: TP_TRANSPORTER: in situ brain perfusion in mdr1a(-/-) mouse
Format: functional, organism-based
Settings: in vivo

Sequence of ATP-dependent translocase ABCB1 (P21447 whole entry, the tested form may be a part): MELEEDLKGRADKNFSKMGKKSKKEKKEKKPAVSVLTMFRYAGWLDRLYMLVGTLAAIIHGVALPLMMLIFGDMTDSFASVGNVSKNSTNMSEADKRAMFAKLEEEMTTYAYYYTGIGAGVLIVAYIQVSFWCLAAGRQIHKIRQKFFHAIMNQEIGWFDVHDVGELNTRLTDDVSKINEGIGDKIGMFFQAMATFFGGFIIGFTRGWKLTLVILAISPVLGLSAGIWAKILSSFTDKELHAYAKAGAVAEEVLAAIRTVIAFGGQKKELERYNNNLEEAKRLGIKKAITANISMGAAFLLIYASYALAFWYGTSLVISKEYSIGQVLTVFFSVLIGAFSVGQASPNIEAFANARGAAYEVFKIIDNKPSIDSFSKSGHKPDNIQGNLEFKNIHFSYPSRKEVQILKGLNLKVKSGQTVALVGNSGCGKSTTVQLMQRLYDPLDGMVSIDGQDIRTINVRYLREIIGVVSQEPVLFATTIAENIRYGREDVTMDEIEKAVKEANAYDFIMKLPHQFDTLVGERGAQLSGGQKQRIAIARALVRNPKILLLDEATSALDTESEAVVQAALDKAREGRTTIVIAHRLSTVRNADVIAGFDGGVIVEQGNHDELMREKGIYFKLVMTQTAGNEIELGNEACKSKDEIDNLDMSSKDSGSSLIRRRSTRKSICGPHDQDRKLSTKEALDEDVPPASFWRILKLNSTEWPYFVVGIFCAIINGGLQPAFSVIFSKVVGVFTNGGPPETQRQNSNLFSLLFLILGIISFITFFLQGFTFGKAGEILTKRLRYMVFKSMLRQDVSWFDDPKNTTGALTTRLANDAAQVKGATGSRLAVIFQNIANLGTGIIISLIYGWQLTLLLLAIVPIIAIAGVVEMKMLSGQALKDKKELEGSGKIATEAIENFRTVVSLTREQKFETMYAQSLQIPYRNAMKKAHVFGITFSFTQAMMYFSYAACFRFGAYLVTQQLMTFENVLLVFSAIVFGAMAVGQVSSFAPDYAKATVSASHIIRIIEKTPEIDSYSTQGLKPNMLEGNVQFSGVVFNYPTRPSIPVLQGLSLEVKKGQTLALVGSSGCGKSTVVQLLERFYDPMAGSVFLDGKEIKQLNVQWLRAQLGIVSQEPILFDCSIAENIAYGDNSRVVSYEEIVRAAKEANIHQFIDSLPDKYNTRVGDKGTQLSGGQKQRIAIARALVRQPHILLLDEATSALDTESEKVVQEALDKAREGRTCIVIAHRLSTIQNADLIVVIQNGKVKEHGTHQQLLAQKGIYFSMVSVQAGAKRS

## CC1(C)SSC(C)(C)[C@@H](NC(=O)[C@@H](N)Cc2ccc(O)cc2)C(=O)NCC(=O)N[C@@H](Cc2ccccc2)C(=O)N[C@H]1C(=O)O
  Activity: substrate [+]

Reference: ChEMBL document CHEMBL2074509, “Uptake and efflux of the peptidic delta-opioid receptor agonist” (Neurosci Lett, 2001)
